Experimental data from US12415816B2, “Benzothiazole derivatives and 7-aza-benzothiazole derivatives as janus kinase 2 inhibitors and uses thereof” (Dana-Farber Cancer Institute, Inc., priority 2018, dated 2025).

Experiments:
[1] = molecular target: JAK2 (Homo sapiens (Human), UniProt O60674); test: JAK2 Z-Lyte biochemical assay; details: commercial JAK2 Z-Lyte assay from Invitrogen
Description: The JAK2 Z-Lyte biochemical assay was performed according to manufacturer's instructions (Life Technologies).

[2] = test system: JAK2/STAT5; test: Western blots of JAK2/STAT5 inhibition in cells; assay type: cell-based; details: cells treated with indicated concentrations for 4 hours; immunoblotting pJAK2, pSTAT5, c-Myc
Description: (§1) FIG. 1. […] Cells were treated with the indicated concentrations of JAK2 inhibitor for 4 hours. Cell pellets were lysed with Cell Lysis Buffer (Cell Signaling Technology) and then immunoblotting was performed with pJAK2 (#3771), pSTAT5 (#4322), c-Myc (#9402), JAK2 (#3230), STAT5 (#9363 or 94205), and β-actin (#4967 or 12620) antibodies from Cell Signaling Technology.
as §1, with “2.” for “1.”

[3] = test system: cell lines or patient-derived xenografts from patients with CRLF2-rearranged B-ALL; details: cited from earlier work

Chain of JAK2 (O60674 whole entry): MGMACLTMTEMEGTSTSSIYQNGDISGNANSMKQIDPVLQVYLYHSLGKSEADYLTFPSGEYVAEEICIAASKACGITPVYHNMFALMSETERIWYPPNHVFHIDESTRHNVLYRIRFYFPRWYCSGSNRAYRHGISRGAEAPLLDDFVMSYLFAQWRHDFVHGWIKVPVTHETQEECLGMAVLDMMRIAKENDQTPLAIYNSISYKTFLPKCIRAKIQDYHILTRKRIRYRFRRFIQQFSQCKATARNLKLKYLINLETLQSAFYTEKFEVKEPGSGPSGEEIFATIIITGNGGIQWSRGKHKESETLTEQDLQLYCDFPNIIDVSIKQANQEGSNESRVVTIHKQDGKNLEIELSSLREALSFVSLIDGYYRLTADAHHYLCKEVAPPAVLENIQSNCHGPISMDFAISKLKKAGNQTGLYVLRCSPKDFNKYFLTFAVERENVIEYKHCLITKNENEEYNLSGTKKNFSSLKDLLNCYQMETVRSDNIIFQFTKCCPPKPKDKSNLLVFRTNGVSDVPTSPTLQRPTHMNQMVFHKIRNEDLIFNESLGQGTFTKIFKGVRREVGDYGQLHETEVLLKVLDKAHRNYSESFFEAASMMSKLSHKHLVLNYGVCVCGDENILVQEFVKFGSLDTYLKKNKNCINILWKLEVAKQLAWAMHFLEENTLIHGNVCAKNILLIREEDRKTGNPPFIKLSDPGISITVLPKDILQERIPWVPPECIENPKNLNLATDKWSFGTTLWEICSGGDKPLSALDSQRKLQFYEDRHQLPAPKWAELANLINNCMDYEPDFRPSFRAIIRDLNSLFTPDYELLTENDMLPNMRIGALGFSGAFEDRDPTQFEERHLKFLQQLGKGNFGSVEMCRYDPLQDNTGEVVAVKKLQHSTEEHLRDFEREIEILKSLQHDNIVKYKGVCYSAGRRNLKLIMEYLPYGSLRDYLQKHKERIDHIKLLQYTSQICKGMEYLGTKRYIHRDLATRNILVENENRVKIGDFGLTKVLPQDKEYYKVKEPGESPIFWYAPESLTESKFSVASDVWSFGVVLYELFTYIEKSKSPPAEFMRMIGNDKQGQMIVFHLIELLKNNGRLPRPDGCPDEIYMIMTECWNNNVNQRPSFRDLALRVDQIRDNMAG

In the case of CCN1CCN(C(=O)c2cc(NC(=O)c3ccc(C)c(-c4ccc5nc(NC(=O)C6CC6)sc5n4)c3)cc(C(F)(F)F)c2)CC1 [Compound I-6, 3-(2-(cyclopropanecarboxamido)thiazolo[5,4-b]pyridin-5-yl)-N-(3-(4-ethylpiperazine-1-carbonyl)-5-(trifluoromethyl)phenyl)-4-methylbenzamide], the IC50 [1] is reported as 1450 nM and the “JAK2/STAT5 inhibition (Western blots)” value [2] is reported as “JAK2/STAT5 inhibition”.
In the case of CCN1CCN(Cc2cc(C(=O)Nc3ccc(C)c(-c4ccc5nc(NC(=O)C6CC6)sc5n4)c3)cc(C(F)(F)F)c2)CC1 [Compound I-8, N-(3-(2-(cyclopropanecarboxamido)thiazolo[5,4-b]pyridin-5-yl)-4-methylphenyl)-3-((4-ethylpiperazin-1-yl)methyl)-5-(trifluoromethyl)benzamide], the IC50 [1] is reported as 639 nM and the “JAK2/STAT5 inhibition (Western blots)” value [2] is reported as “JAK2/STAT5 inhibition”.
For N#CC[C@H](C1CCCC1)n1cc(-c2ncnc3[nH]ccc23)cn1 [Ruxolitinib], the IC50 [3] is given as greater than 20 µM.
